Reference: patent US11066396B2 (priority 2016, dated 2021)

How the values were obtained:
HDAC8 = HDAC8 (Homo sapiens (Human), UniProt Q9BY41); conditions: read-out: HDAC8 IC50
HDAC1 = HDAC1 (Homo sapiens (Human), UniProt Q13547); conditions: read-out: HDAC1 IC50
Sequence of HDAC1 (Q13547 whole entry): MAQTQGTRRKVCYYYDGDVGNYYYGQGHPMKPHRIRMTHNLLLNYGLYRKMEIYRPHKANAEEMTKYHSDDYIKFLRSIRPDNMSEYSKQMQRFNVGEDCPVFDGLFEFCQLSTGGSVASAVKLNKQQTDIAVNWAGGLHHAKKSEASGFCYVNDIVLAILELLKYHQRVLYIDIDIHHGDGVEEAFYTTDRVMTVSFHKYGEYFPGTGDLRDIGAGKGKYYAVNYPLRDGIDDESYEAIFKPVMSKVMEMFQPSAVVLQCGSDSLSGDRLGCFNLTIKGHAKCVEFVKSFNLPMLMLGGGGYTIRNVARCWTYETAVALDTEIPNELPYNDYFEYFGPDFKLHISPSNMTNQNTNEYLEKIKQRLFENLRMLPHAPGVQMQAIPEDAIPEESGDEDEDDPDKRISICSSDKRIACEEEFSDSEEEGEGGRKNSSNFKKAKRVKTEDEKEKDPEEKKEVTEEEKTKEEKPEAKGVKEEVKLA
Description: Assay protocol: In brief, compounds were titrated in 100% DMSO via accoustic dispensing directly to the assay plate using the ECHO 550 [Labcyte]. HDAC enzymes at the concentrations indicated above were added in assay buffer to the assay plates containing the compounds using a Combi [Thermo Scientific]. The wells were mixed, and the plates were allowed to pre-incubate at ambient temperature for 3 h. After the 3 h, the appropriate substrate, at the concentrations indicated above, was added to the wells using a Combi. The wells were mixed, and the plates were allowed to incubate at ambient temperature for 1 h. After the 1 h, the appropriate Developer/stop solution was added to the wells using a Combi. The wells were mixed, and the plates were allowed to incubate at ambient temperature for 1 h. […] Data were analyzed using 4P curve fitting with Activity Base [IDBS] software.

Sequence of HDAC8 (Q9BY41 whole entry): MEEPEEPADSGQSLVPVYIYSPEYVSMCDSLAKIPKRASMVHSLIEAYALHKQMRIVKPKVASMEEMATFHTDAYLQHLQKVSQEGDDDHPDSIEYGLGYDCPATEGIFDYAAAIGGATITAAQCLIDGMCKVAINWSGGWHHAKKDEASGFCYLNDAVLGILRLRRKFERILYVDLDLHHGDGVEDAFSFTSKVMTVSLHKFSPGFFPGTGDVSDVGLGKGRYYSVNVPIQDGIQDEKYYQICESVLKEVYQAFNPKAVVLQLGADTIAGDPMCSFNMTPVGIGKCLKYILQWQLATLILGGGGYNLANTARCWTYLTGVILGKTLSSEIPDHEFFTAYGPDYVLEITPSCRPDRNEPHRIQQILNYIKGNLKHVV

Compound | IC50 (HDAC8) [nM] | IC50 (HDAC1) [nM]
CC(C)(C(=O)N(Cc1ccc(-c2noc(C(F)(F)F)n2)cn1)c1cccc(F)c1)n1cncn1 [Example 392, N-(3-fluorophenyl)-2-methyl-2-(1H-1,2,4-triazol-1-yl)-N-({5-[5-(trifluoromethyl)-1,2,4-oxadiazol-3-yl]pyridin-2-yl}methyl)propanamide] | 3100 | 480
Cc1n[nH]c(CC(=O)N(Cc2ccc(-c3noc(C(F)(F)F)n3)cn2)c2cccc(F)c2)n1 [Example 393, N-(3-fluorophenyl)-2-(3-methyl-1H-1,2,4-triazol-5-yl)-N-({5-[5-(trifluoromethyl)-1,2,4-oxadiazol-3-yl]pyridin-2-yl}methyl)acetamide] | 3400 | 410
Cc1ncc(CC(=O)N(Cc2ccc(-c3noc(C(F)(F)F)n3)cn2)c2cccc(F)c2)s1 [Example 394, N-(3-fluorophenyl)-2-(2-methyl-1,3-thiazol-5-yl)-N-({5-[5-(trifluoromethyl)-1,2,4-oxadiazol-3-yl]pyridin-2-yl}methyl)acetamide] | 2400 | 730
Cc1nnc(CC(=O)N(Cc2ccc(-c3noc(C(F)(F)F)n3)cn2)c2cccc(F)c2)s1 [Example 395, N-(3-fluorophenyl)-2-(5-methyl-1,3,4-thiadiazol-2-yl)-N-({5-[5-(trifluoromethyl)-1,2,4-oxadiazol-3-yl]pyridin-2-yl}methyl)acetamide] | 1300 | 330
Cc1noc(CC(=O)N(Cc2ccc(-c3noc(C(F)(F)F)n3)cn2)c2cccc(F)c2)n1 [Example 396, N-(3-fluorophenyl)-2-(3-methyl-1,2,4-oxadiazol-5-yl)-N-({5-[5-(trifluoromethyl)-1,2,4-oxadiazol-3-yl]pyridin-2-yl}methyl)acetamide] | 1000 | 380
O=C(Cc1[nH]nc2ccccc12)N(Cc1ccc(-c2noc(C(F)(F)F)n2)cn1)c1cccc(F)c1 [Example 397, N-(3-fluorophenyl)-2-(2H-indazol-3-yl)-N-({5-[5-(trifluoromethyl)-1,2,4-oxadiazol-3-yl]pyridin-2-yl}methyl)acetamide] | 1100 | 420
CC(C)c1ncncc1C(=O)N(Cc1ccc(-c2noc(C(F)(F)F)n2)cn1)c1cccc(F)c1 [Example 399, N-(3-fluorophenyl)-4-(1-methylethyl)-N-({5-[5-(trifluoromethyl)-1,2,4-oxadiazol-3-yl]pyridin-2-yl}methyl)pyrimidine-5-carboxamide] | 3100 | 930
Cc1ccc(C(=O)N(Cc2ccc(-c3noc(C(F)(F)F)n3)cn2)c2cccc(F)c2)nn1 [Example 400, N-(3-fluorophenyl)-6-methyl-N-({5-[5-(trifluoromethyl)-1,2,4-oxadiazol-3-yl]pyridin-2-yl}methyl)pyridazine-3-carboxamide] | 3200 | 260
Cc1ncc(C(=O)N(Cc2ccc(-c3noc(C(F)(F)F)n3)cn2)c2cccc(F)c2)cn1 [Example 401, N-(3-fluorophenyl)-2-methyl-N-({5-[5-(trifluoromethyl)-1,2,4-oxadiazol-3-yl]pyridin-2-yl}methyl)pyrimidine-5-carboxamide] | 3300 | 290
CS(=O)(=O)N1CC(C(=O)N(Cc2ccc(-c3noc(C(F)(F)F)n3)cn2)c2cccc(F)c2)C1 [Example 404, N-(3-fluorophenyl)-1-(methylsulfonyl)-N-({5-[5-(trifluoromethyl)-1,2,4-oxadiazol-3-yl]pyridin-2-yl}methyl)azetidine-3-carboxamide] | 1300 | 280
O=C(C1CCN(C2CC2)CC1)N(Cc1ccc(-c2noc(C(F)(F)F)n2)cn1)c1cccc(F)c1 [Example 406, 1-cyclopropyl-N-(3-fluorophenyl)-N-({5-[5-(trifluoromethyl)-1,2,4-oxadiazol-3-yl]pyridin-2-yl}methyl)piperidine-4-carboxamide] | 1800 | 270
FC(F)(F)c1nc(-c2ccc(CNc3ccc4c[nH]nc4c3)cc2)no1 [Example 411, N-{4-[5-(trifluoromethyl)-1,2,4-oxadiazol-3-yl]benzyl}-2H-indazol-6-amine] | 2200 | 1000
FC(F)(F)c1nc(-c2ccc(CNc3cccc4[nH]ncc34)cc2)no1 [Example 415, N-{4-[5-(trifluoromethyl)-1,2,4-oxadiazol-3-yl]benzyl}-1H-indazol-4-amine] | 2500 | 1600
FC(F)(F)c1nc(-c2ccc(CNc3cnccn3)cc2)no1 [Example 417, N-{4-[5-(trifluoromethyl)-1,2,4-oxadiazol-3-yl]benzyl}pyrazin-2-amine] | 1900 | 2600
OCc1ccnc(NCc2ccc(-c3noc(C(F)(F)F)n3)cc2)n1 [Example 418, [2-({4-[5-(trifluoromethyl)-1,2,4-oxadiazol-3-yl]benzyl}amino)pyrimidin-4-yl]methanol] | 3200 | 3600
FC(F)(F)c1nc(-c2ccc(CNc3cncnc3)cc2)no1 [Example 419, N-{4-[5-(trifluoromethyl)-1,2,4-oxadiazol-3-yl]benzyl}pyrimidin-5-amine] | 1900 | 2600
COCc1cc(=O)n(Cc2ccc(-c3noc(C(F)(F)F)n3)cn2)c2ccccc12 [Example 420, 4-(methoxymethyl)-1-({5-[5-(trifluoromethyl)-1,2,4-oxadiazol-3-yl]pyridin-2-yl}methyl)quinolin-2(1H)-one] | 1000 | 110

Compound | IC50 (HDAC8) [nM] | IC50 (HDAC1) [nM]
FC(F)(F)c1nc(-c2ccnc(OC[C@@H]3C[C@@H]3c3ncccn3)c2)no1 [Example 424, 2-{(1S,2R)-2-[({4-[5-(trifluoromethyl)-1,2,4-oxadiazol-3-yl]pyridin-2-yl}oxy)methyl]cyclopropyl}pyrimidine] | 320 | 2600
COCCN1Cc2ccccc2N(Cc2ccc(-c3noc(C(F)(F)F)n3)cn2)C1=O [Example 429, 3-(2-methoxyethyl)-1-({5-[5-(trifluoromethyl)-1,2,4-oxadiazol-3-yl]pyridin-2-yl}methyl)-3,4-dihydroquinazolin-2(1H)-one] | 2300 | 460
FC(F)(F)c1nc(-c2ccc(CNc3[nH]nc4ccccc34)nc2)no1 [Example 430, N-({5-[5-(trifluoromethyl)-1,2,4-oxadiazol-3-yl]pyridin-2-yl}methyl)-2H-indazol-3-amine] | 2000 | 530
FC(F)(F)c1nc(-c2ccc(CNc3c[nH]nn3)nc2)no1 [Example 431, N-({5-[5-(trifluoromethyl)-1,2,4-oxadiazol-3-yl]pyridin-2-yl}methyl)-1H-1,2,3-triazol-4-amine] | 1900 | 4300
FC(F)(F)c1nc(-c2ccc(CNc3cnsc3)nc2)no1 [Example 433, N-({5-[5-(trifluoromethyl)-1,2,4-oxadiazol-3-yl]pyridin-2-yl}methyl)isothiazol-4-amine] | 900 | 890
FC(F)(F)c1nc(-c2ccc(CNc3cnoc3)nc2)no1 [Example 434, N-({5-[5-(trifluoromethyl)-1,2,4-oxadiazol-3-yl]pyridin-2-yl}methyl)isoxazol-4-amine] | 1200 | 1100
C[Si]1(C)CCC(NCc2ccc(-c3noc(C(F)(F)F)n3)cn2)CC1 [Example 436, 1,1-dimethyl-N-({5-[5-(trifluoromethyl)-1,2,4-oxadiazol-3-yl]pyridin-2-yl}methyl)silinan-4-amine] | 4200 | 1200
CN(C)C(=O)c1cccc(NCc2ccc(-c3noc(C(F)(F)F)n3)cn2)c1 [Example 438, N,N-dimethyl-3-[({5-[5-(trifluoromethyl)-1,2,4-oxadiazol-3-yl]pyridin-2-yl}methyl)amino]benzamide] | 1000 | 520
O=C(NCc1ccccn1)c1cccc(NCc2ccc(-c3noc(C(F)(F)F)n3)cn2)c1 [Example 441, N-(pyridin-2-ylmethyl)-3-[({5-[5-(trifluoromethyl)-1,2,4-oxadiazol-3-yl]pyridin-2-yl}methyl)amino]benzamide] | 740 | 490
NC(=O)c1ccnc(NCc2ccc(-c3noc(C(F)(F)F)n3)cn2)c1 [Example 442, 2-[({5-[5-(trifluoromethyl)-1,2,4-oxadiazol-3-yl]pyridin-2-yl}methyl)amino]pyridine-4-carboxamide] | 750 | 280
CC(C)NC(=O)c1ccccc1NCc1ccc(-c2noc(C(F)(F)F)n2)cn1 [Example 443, N-(1-methylethyl)-2-[({5-[5-(trifluoromethyl)-1,2,4-oxadiazol-3-yl]pyridin-2-yl}methyl)amino]benzamide] | 1400 | 1200
CNC(=O)c1ccccc1NCc1ccc(-c2noc(C(F)(F)F)n2)cn1 [Example 444, N-methyl-2-[({5-[5-(trifluoromethyl)-1,2,4-oxadiazol-3-yl]pyridin-2-yl}methyl)amino]benzamide] | 2500 | 350
NC(=O)c1ncccc1NCc1ccc(-c2noc(C(F)(F)F)n2)cn1 [Example 445, 3-[({5-[5-(trifluoromethyl)-1,2,4-oxadiazol-3-yl]pyridin-2-yl}methyl)amino]pyridine-2-carboxamide] | 2200 | 850
O=C(NC1CC1)c1ccccc1NCc1ccc(-c2noc(C(F)(F)F)n2)cn1 [Example 446, N-cyclopropyl-2-[({5-[5-(trifluoromethyl)-1,2,4-oxadiazol-3-yl]pyridin-2-yl}methyl)amino]benzamide] | 1600 | 240
O=C(Nc1ccccc1)c1ccccc1NCc1ccc(-c2noc(C(F)(F)F)n2)cn1 [Example 447, N-phenyl-2-[({5-[5-(trifluoromethyl)-1,2,4-oxadiazol-3-yl]pyridin-2-yl}methyl)amino]benzamide] | 740 | 970
NC(=O)c1cccc(NCc2ccc(-c3noc(C(F)(F)F)n3)cn2)c1 [Example 449, 3-[({5-[5-(trifluoromethyl)-1,2,4-oxadiazol-3-yl]pyridin-2-yl}methyl)amino]benzamide] | 1900 | 310
